# Earlier results, collected in patent publication US11071776B2, “Nanoparticles for treatment of allergy” (priority 2012, dated 2021).
structure (smiles),measurement,value
"CCCCCCCCCCCCCCCCCCCCCCCCCC(=O)N[C@@H](CO[C@H]1O[C@H](CO)[C@H](O)[C@H](O)[C@H]1O)[C@H](O)[C@H](O)CCCCCCCCCCCCCC [αGalCer, alpha-galactosylceramide]",toxicity to humans,not toxic to humans
